Experimental data as given in US20140179523A1, “HERBICIDAL COMPOSITIONS COMPRISING 4-AMINO-3-CHLORO-6-(4-CHLORO-2-FLUORO-3-METHOXYPHENYL) PYRIDINE-2-CARBOXYLIC ACID OR A DERIVATIVE THEREOF AND FLUFENACET” (DOW AGROSCIENCES LLC, priority 2012, published 2014).

System: field violet (Viola arvensis, VIOAR)
Test: Field trials, post-emergence application in winter wheat, % biomass control visually rated
Format: in vivo
From the text: The materials were applied early post-emergence. % BIOMASS CONTROL was visually rated.

Structure (SMILES) | % BIOMASS CONTROL 39 DAA Obs (Cmpd 1 7.5 g ae/ha) | % BIOMASS CONTROL 181 DAA Obs (Cmpd 1 7.5 g ae/ha) | % BIOMASS CONTROL 225 DAA Obs (Cmpd 1 7.5 g ae/ha) | % BIOMASS CONTROL 39 DAA Obs (flufenacet 240 g ai/ha) | % BIOMASS CONTROL 181 DAA Obs (flufenacet 240 g ai/ha) | % BIOMASS CONTROL 225 DAA Obs (flufenacet 240 g ai/ha)
COC(=O)c1nc(-c2ccc(Cl)c(OC)c2F)cc(N)c1Cl [Cmpd 1, methyl 4-amino-3-chloro-6-(4-chloro-2-fluoro-3-methoxyphenyl)-pyridine-2-carboxylate] | 13.33d % | 23.33f % | 18.33f % | – | – | –
CC(C)N(C(=O)COc1nnc(C(F)(F)F)s1)c1ccc(F)cc1 [Flufenacet, N-(4-fluorophenyl)-N-(1-methylethyl)-2-[[5-(trifluoromethyl)-1,3,4-thiadiazol-2-yl]oxy]acetamide] | – | – | – | 10.00d % | 15.00g % | 10.00g %
